The METLIN SMRT retention time set (Domingo-Almenara et al. 2019)

Assay: gradient 5% acetonitrile 3 min, to 50% in 2 min, to 85% in 15 min, held 3 min, 100 µL/min
Conditions: column: Zorbax Extend-C18 2.1 x 50 mm; eluents: water / acetonitrile, 0.1% formic acid
Outline: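 Retention times come from adduct peaks that were picked computationally and then checked by hand. The standards, pure and pooled in mixtures of ~100 molecules, were run on a Zorbax Extend-C18 column (2.1 × 50 mm, 1.8 μm) at 100 μL/min with water and acetonitrile, each with 0.1% formic acid. Detection was by quadrupole time-of-flight mass spectrometry in positive and negative ionization mode, with a dead volume of 40 μL and a dwell volume of 900 μL.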

Structure (SMILES)	RP-LC retention time [s]
COc1cc(-c2nnc(-c3ccc(C)c(S(=O)(=O)N4CCOCC4)c3)o2)cc(OC)c1OC	891
CCC(=O)N1CCOc2ccc(N(C)C)cc2C1	570
CCSc1nnc(-c2nn(C)c3c2CN(S(=O)(=O)c2ccc(C)c(Cl)c2)CC3)n1CC	1050
Cc1cccc(N2CCN(c3cc(C(=O)O)c4cc(NC(=O)C(C)C)ccc4n3)CC2)c1C	732
CCSc1nnc(-c2nn(C)c3c2CN(S(=O)(=O)c2ccccc2Cl)CC3)n1CC	948
Cc1ccc(-c2nc3cc(C)ccn3c2Nc2ccccc2C)cc1	770
O=C(c1nc2ccccn2c1-c1ccc(Cl)cc1)N1CCCC1	712
CCCCN1C(=O)c2cc(S(=O)(=O)N3CCc4ccccc43)ccc2Oc2cccnc21	1260
CC(C)c1nc(C2CN(C(=O)Nc3ccc(Cl)cc3)C2)n(C)n1	704
CCOc1ccccc1CNC(=O)C1CCN(Cc2c(C)n(CC)c3ccccc23)CC1	780
CN(CCc1noc(COc2ccc(Cl)cc2)n1)C(=O)NCCc1ccccc1	965
CCOC(=O)c1nc(Nc2ccc(C)cc2C)c2ccccc2n1	831
O=C(NCCCN1CCCC1)C1CCN(c2nccnc2Sc2ccccc2)CC1	650
O=C(Nc1cccnc1)C1CCCN(c2ncnc3c2nc2n3CCCCC2)C1 (configuration not stated)	603
Cc1cccc(C2(O)C(=O)N(Cc3ccc(C#N)cc3)c3ccccc32)c1 (configuration not stated)	825
CCOc1ccc2nc(NC(=O)C3CCN(C(=O)c4ccc(-c5noc(C)n5)cc4)CC3)sc2c1	875
O=C(NCCN1CCCCC1)C1CCc2sc(C(=O)N3CCCCC3)cc2C1 (configuration not stated)	558
C=CCc1ccccc1OCC(O)CN1CCC(C)CC1 (configuration not stated)	588
COc1ccc(OC)c(S(=O)(=O)N2CCCC(C(=O)NCC(C)C)C2)c1 (configuration not stated)	796
Cc1nn(C)c(C)c1S(=O)(=O)N1[C@H]2CC[C@@H]1c1cnc(-c3ccc(F)cc3)nc1C2	924
Cc1ccc(N2CCN(Cc3nc(-c4ccc(N5CCSCC5)nc4)no3)CC2)cc1	959
CN(C)C(=O)c1cc2c(s1)CCC(C(=O)N1CCOCC1)C2 (configuration not stated)	781
CN(C)C(=O)c1csc(S(=O)(=O)N2CCC(C(=O)NCc3cccs3)CC2)c1	718
COCCO[C@H]1C(=O)N(C2CCN(S(=O)(=O)C(C)C)CC2)[C@H]1c1ccncc1	572
CC(C)C(=O)NC(C)c1nc2ccccc2n1CC(N)=O (configuration not stated)	503

Structure (SMILES)	RP-LC retention time [s]
CCOC(=O)c1sc(NC(=O)CSc2nc3ccccc3[nH]2)nc1C	810
C=CCNC(=O)CCc1c(-c2ccc(Br)cc2)nc2ccccn12	622
Cc1ccc(S(=O)(=O)N2CCC3(CC2)OCCS3)s1	906
Cc1csc(-c2csc(S(=O)(=O)NCc3cccs3)c2)n1	907
Cc1cc(C(=O)N2CCC(c3noc(N)c3C(C)C)CC2)c(C)o1	759
COc1ccc(-c2nnc(-c3cc(S(=O)(=O)Nc4cccnc4)ccc3Cl)o2)cc1	803
CC(C)CNC(=O)c1nc2cccnc2n(CC(C)C)c1=O	940
O=C(c1ccc2cc[nH]c2c1)N1CCC2(CC1)N=C(c1ccccc1)NO2	770
CN(C)[C@@H]1CN(C(=O)c2ccc(F)cc2Cl)C[C@H]1CO	553
O=C(Nc1ccc(F)cc1Cl)c1c(O)c2cccnc2n(-c2cccc(F)c2)c1=O	1300
Cc1ccc(C(=O)Nc2ccc(CN3CCN(C)CC3)c(C(F)(F)F)c2)cc1C#Cc1cnc2cccnn12	812
O=C(C1=CN(c2ccc3c(c2)OCCO3)c2ccccc2S1(=O)=O)N1CCOCC1	730
O=C(c1ccn2c(-c3ccc(Cl)cc3)nnc2c1)N1CCN(c2ccccn2)CC1	596
O=C(O)c1ccc(NC(=O)N2C[C@@H]3C[C@@H](C2)c2cccc(=O)n2C3)cc1	592
O=C(CCC1CCCN(S(=O)(=O)c2ccc(F)cc2)C1)NC1CCS(=O)(=O)C1 (configuration not stated)	731
O=C(c1ccc(F)c(F)c1Nc1ccc(I)cc1F)N1CC(O)([C@H]2CCCCN2)C1	822
CCC(C(=O)NCCc1c[nH]c2ccc(OC)cc12)n1c2ccccc2c2cnn(C)c(=O)c21 (configuration not stated)	890
COc1ccc(CCC(=O)NC(C)C(=O)N2CCN(c3ccccn3)CC2)cc1 (configuration not stated)	606
CC(C)n1cnc(S(=O)(=O)N2CCCC(C(=O)Nc3cccc(C(F)(F)F)c3)C2)c1 (configuration not stated)	890
CC(NC(=O)c1ccccc1F)C(=O)N1CCN(c2ccccn2)CC1 (configuration not stated)	574
Cc1ccc(NC(=O)N2CCc3c(c(-c4nc(C5CC5)no4)nn3C)C2)cc1	867
CCOc1cccc(C2c3[nH]c4ccccc4c3CCN2C(=O)c2ccnn2C)c1 (configuration not stated)	1050
CNC(=O)N1CCc2c(c(-c3nc(-c4ccc(F)cc4)no3)nn2C)C1	723
O=C(NCC1CC1)C1CCN(C(=O)c2ncn3c2COC(c2ccc(Cl)cc2)C3)CC1 (configuration not stated)	758
CN1C(=O)C2(CCN(C(=O)c3ccccc3F)C2)c2ccccc21 (configuration not stated)	750

Second part, the compound after the results:

RP-LC retention time [s]	Structure (SMILES)
902	O=C(Nc1cnc(N2CCCCC2)nc1)c1ccccc1Br
854	O=C(CSCC(=O)Nc1nc2ccccc2s1)Nc1nc(-c2cccs2)cs1
798	Cc1cccc(CNC(=O)c2sc(CC(=O)N3CCSCC3)nc2C)c1
582	Cn1cc(-c2ccc3ncc(Cc4ccc5ncccc5c4)n3n2)cn1
784	Cc1ccc(CNC(=O)C2CCCN(c3nnc(C)c4c(C)n(-c5ccc(Cl)cc5)nc34)C2)cc1 (configuration not stated)
1050	Cc1ccc(-c2cc(NC(=O)c3cccc(N(C)C)c3)on2)s1
731	Cc1ccc(CNC(=O)N2CC(c3nc(C)no3)C3(CCOCC3)C2)cc1 (configuration not stated)
946	CCc1cccc(NS(=O)(=O)c2cn(C(C)C)c3ncccc23)c1
746	O=c1ccc(-c2nc(-c3cccc(Br)c3)no2)cn1Cc1ccncc1
876	Cc1nc(-c2cnccn2)nc2c1CCC(=O)N2CCC1=CCCCC1
635	O=C(NCCn1nc(-n2cccn2)ccc1=O)C1(c2ccccc2)CCOCC1
706	CCNC(=O)c1cnn(-c2cc(-c3nc(C)no3)ccn2)c1C
664	COc1ccc(-c2nc3cnccn3c2Nc2ccc(C(=O)N3CCOCC3)cc2)cc1
912	CC(C)CNC(=O)C1CCCN(c2nc3ccsc3c(=O)n2Cc2ccc(F)cc2)C1 (configuration not stated)
859	Cc1noc(C)c1C1CCCN1C(=O)c1cc(-c2ccccc2F)no1 (configuration not stated)
1280	COc1ccc(C)cc1NC(=O)C(=O)NCCc1csc(-c2ccc(Cl)cc2)n1
774	CCOC(=O)CCC(=O)NCC1CN(c2ccc(Cl)c(Cl)c2)C(=O)O1 (configuration not stated)
906	CC1(C)CC(=O)C2=C(C1)N(CC1CCCO1)C(=O)C2(NC(=O)c1ccccc1)C(F)(F)F (configuration not stated)
1120	Cc1ccccc1Oc1nccnc1N1CCCC(C(=O)NC2CCCCCC2)C1 (configuration not stated)

RP-LC retention time [s]	Structure (SMILES)
608	CN1C(=O)[C@H]2CN(Cc3cccc(Br)c3)C[C@H]2C1=O
841	COc1ccc(N2C(=O)C3N=NN(Cc4nc(-c5ccc(OC(C)C)cc5)no4)C3C2=O)cc1OC (configuration not stated)
916	COc1cccc(S(=O)(=O)N2CCc3c(c(-c4nnc(-c5ccccc5F)o4)nn3C)C2)c1
1130	COc1ccc(CN2C=C(C(=O)OCc3nc(-c4cccc(OC)c4)no3)C(C)=NS2(=O)=O)cc1
1120	Cc1ccccc1-c1nc(-c2nnn(Cc3ccccc3)c2C)no1
1260	Clc1cccc(-c2csc(Cc3nc(-c4ccc5c(c4)OCO5)no3)n2)c1
732	CCOC(=O)c1cc(S(=O)(=O)N2CCCC2C(=O)NC2CCCC2)cn1C (configuration not stated)
1110	Cc1cccc(N2CCN(S(=O)(=O)c3cc(-c4nnc(C5CCC5)o4)co3)CC2)c1
660	Cc1cc(C(=O)Nc2nc3c(s2)CN(C(=O)c2snnc2C)CC3)no1
849	CCn1ncn2cc(S(=O)(=O)Nc3cccc(C)c3)cc2c1=O
870	Cc1ccnn1-c1ccc(SCC(=O)Nc2cccc(F)c2)nn1
678	O=C(NCCCn1nc(-c2ccco2)ccc1=O)Nc1ccc2c(c1)OCO2
952	Cc1cccc(NC(=O)C23CCC=C2N(C2CCCC2)C(=O)CC3)c1 (configuration not stated)
969	COc1ccc(-c2nc(C3CC(=O)N(c4ccc(F)cc4)C3)no2)cc1F (configuration not stated)
754	O=C(C1CCN(S(=O)(=O)c2ccc3[nH]c(=O)ccc3c2)CC1)N1CCN(c2ccccc2F)CC1
933	C=CCN(CC=C)c1nc(-c2ccc(Cl)cc2Cl)nc2ccccc12
845	Cc1cc(N2CCC(NC(=O)Nc3ccc(F)cc3F)C2=O)ccc1F (configuration not stated)
579	O=C1CCC2(C(=O)N3CCN(c4ccccn4)CC3)CCC=C2N1C1CCCC1 (configuration not stated)
